Experimental findings from PubChem BioAssay (NCI) are described below.

Holding throughout (assay): NCI anticancer screen, dose series, 48 h
Assay [1] has as its system SK-MEL-28 melanoma.
The test system of assay [2] is ACHN renal.
Assay [3] concerns SF-295 CNS.
The test system of assay [4] is NCI-H23 lung.
The test system of assay [5] is SN12C renal.
Assay [6] relates to T-47D breast.
The subject of assay [7] is RXF 393 renal.
Assay [8] relates to NCI-H522 lung.
In assay [9] the test system is HCT-116 colon.
Assay [10] deals with LOX IMVI melanoma.
Assay [11] concerns OVCAR-4 ovarian.
For assay [12], the system named is OVCAR-3 ovarian.
In assay [13] the test system is SF-268 CNS.
Assay [14] concerns SR leukemia.
Assay [15] concerns HT29 colon.
The subject of assay [16] is MCF7 breast.
Assay [17] relates to TK-10 renal.
For assay [18], the system named is COLO 205 colon.

Structures are written as SMILES.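 Cells were grown in 96-well plates and exposed to each compound for 48 hours at five concentrations; endpoints were interpolated linearly between bracketing concentrations, or set to the highest concentration if not reached. The concentration for full growth arrest is given as TGI.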 Some results are limits rather than exact numbers.

For `COc1ccc2c(O)c(Oc3ccc(Cl)cc3)c(=O)oc2c1`, the TGI in assay [1], in assay [2], in [3], in assay [4], in [5] and in assay [6] was over 100 µM each time. The TGI in assay [7], in [8], in assay [9], in assay [10], in assay [11] and in assay [12] was over 100 µM in each case. Also, the TGI in [13], in assay [14], in [15], in assay [16] and in [17] was over 100 µM throughout.

For `C=CCN1C(=O)CC2[C@@H]3CCc4cc(O)ccc4C3CC[C@]2(C)C1=O` (stereo not given in full), the TGI in [1], in assay [2], in [3], in assay [4], in assay [5] and in [6] was over 10 µM in each case. The TGI in assay [7], in [9], in assay [10], in [11], in assay [12] and in [18] was over 10 µM each time. For the same compound, the TGI in [13], in assay [14], in [15], in assay [16] and in [17] was over 10 µM in each case.

Take `Clc1ccc(/C=C/c2nc(-c3ccccc3)cn3c2nc2ccccc23)cc1Cl`: the TGI in assay [1], in assay [2], in [4], in assay [5], in assay [6] and in [7] was over 100 µM each time. Besides, the TGI in [9], in [10], in assay [11], in [12], in assay [18] and in [13] was over 100 µM each time. Moreover, the TGI in assay [14], in assay [15], in assay [16] and in assay [17] was over 100 µM each time.

`CN1CCN(Cn2nc(COc3ccccc3Cl)n(/N=C/c3ccc(-c4ccc(Cl)cc4Cl)o3)c2=S)CC1`: the TGI in assay [1] was over 100 µM; in [3], 87.3 µM; in [4] it was 44.8 µM; in assay [6], 55 µM; in [7], 32 µM; in assay [8] it was 56.1 µM. In addition, the TGI in assay [9] is 34.7 µM; in assay [10] it was over 100 µM; in assay [11], 45.2 µM; in assay [12], 47.5 µM; in assay [13], over 100 µM; in assay [14], 51.8 µM. Moreover, the TGI in assay [15] is 42.9 µM; in assay [16] it was 53.3 µM; in [17], 62.4 µM.

As for `Fc1ccc(Nc2nc(Cl)c3[nH]cnc3n2)cc1Cl`, the TGI in assay [1], in [2], in [3], in [4], in assay [5] and in [6] was over 100 µM each time. Further, the TGI in assay [8], in [9], in [10], in assay [11], in assay [12] and in assay [18] was over 100 µM each time. In addition, the TGI in assay [13], in assay [14], in [15], in [16] and in assay [17] was over 100 µM in each case.

With `C=CCOC(=O)Cn1cnc2c(N)ncnc21`, the TGI in [1], in assay [2], in [3], in assay [4], in assay [5] and in assay [6] was over 100 µM throughout. In addition, the TGI in assay [9], in [10], in assay [11], in [18], in [13] and in assay [14] was over 100 µM each time. In addition, the TGI in assay [15], in assay [16] and in assay [17] was over 100 µM throughout.

Turning to `C#CCN(Cc1ccc2nc(-c3ccccc3)c(Cl)nc2c1)c1ccc(F)cc1`, the TGI in [1], in [2], in assay [3], in assay [4], in [5] and in [6] was over 100 µM in each case. The TGI in [8], in assay [9], in assay [10], in assay [11], in assay [12] and in [18] was over 100 µM each time. Also, the TGI in assay [13], in assay [14], in assay [15], in assay [16] and in [17] was over 100 µM in each case.

On to `CC1(C)CNC(=O)C2(CCCO2)CNC(C)(C)CNC(=O)C2(CCCO2)CN1` (stereo not given), for which the TGI in assay [1], in [2], in assay [3], in [4], in assay [5] and in [6] was over 10 µM throughout. Besides, the TGI in assay [8], in assay [9], in [10], in assay [11], in assay [12] and in [18] was over 10 µM in each case. Besides, the TGI in assay [13], in assay [14], in [15], in assay [16] and in [17] was over 10 µM in each case.

Turning to `CCC(C)N1CN(c2ccccc2)C2(CCN(CC3COc4ccccc4O3)CC2)C1=O` (stereo not given), the TGI in [1] is over 100 µM; in [2] it was over 100 µM; in [3], 39.1 µM; in [4] it was 73.1 µM; in [5], 84.2 µM; in [6], 51.3 µM. Besides, the TGI in [7] was found to be 38.1 µM; in assay [8], 68.6 µM; in assay [9], 32 µM; in [10] it was 44.2 µM; in assay [12], 56.2 µM; in [18] it was 47.7 µM. Also, the TGI in [13] was over 100 µM; in [14] it was 76 µM; in assay [15], 40.3 µM; in assay [16], 49.6 µM; in assay [17], 86.2 µM.

For `COC(=O)C(Cc1ccccc1)NC(=O)CSc1nnc(COc2ccc(Cl)cc2)n1-c1ccccc1` (stereo not given), the TGI is 78.6 µM in [1]; 30.4 µM in assay [2]; 53.3 µM in assay [4]; 48.9 µM in [5]; over 100 µM in assay [6]; 43 µM in [7]. Besides, the TGI in assay [9] is 54.6 µM; in assay [10], 28.3 µM; in assay [11], 64.9 µM; in [18], 41.8 µM; in assay [13] it was over 100 µM; in [14], over 100 µM. The TGI in assay [15] is 53.2 µM; in assay [16], 58.5 µM; in assay [17], 40 µM.

With `Cc1ccc(S(=O)(=O)NNC(=O)Nc2cccc(C(F)(F)F)c2)cc1`, the TGI in assay [1], in [2], in [3], in [4], in assay [5] and in assay [6] was over 100 µM in each case. Further, the TGI in [7], in assay [8], in assay [9], in [11], in assay [18] and in assay [13] was over 100 µM in each case. The TGI in assay [14], in [15], in assay [16] and in assay [17] was over 100 µM each time.

In the case of `CC(C)[Si](OC12CCC(CC1O)CC2CO)(C(C)C)C(C)C` (stereo not given), the TGI in assay [1] amounted to 40.8 µM; in assay [2], 27.2 µM; in [3] it was 24.6 µM; in assay [4], 25.4 µM; in assay [5], 60.6 µM; in [6], 25.7 µM. In addition, the TGI in [9] was 20.7 µM; in [11], 23.7 µM; in assay [12] it was 27.6 µM; in assay [18], 42.2 µM; in assay [13] it was 27.9 µM; in assay [14], 38.5 µM. The TGI in assay [15] stood at 28.9 µM; in [16] it was 24.4 µM; in [17] it was 27.5 µM.

As for `COC(=NC(C)C)NC(C)C`, the TGI in [1], in [2], in assay [4], in assay [5], in [6] and in assay [9] was over 100 µM throughout. Also, the TGI in assay [10], in assay [18], in assay [13], in assay [14], in [16] and in [17] was over 100 µM in each case.

On to `COc1cccc(OC)c1C1ON=C(c2ccccc2)N1C12CC3CC(CC(C3)C1)C2` (stereo not given), for which the TGI in assay [1], in [2], in assay [3], in assay [4], in [5] and in assay [6] was over 100 µM throughout. The TGI in assay [7] was 11.9 µM; in assay [8], over 100 µM; in assay [9], over 100 µM; in assay [10], over 100 µM; in [12], over 100 µM; in assay [18], over 100 µM. Moreover, the TGI in assay [13], in assay [14], in assay [15], in assay [16] and in assay [17] was over 100 µM each time.

In the case of `CN(Cc1cnc2nc(N)nc(N)c2n1)c1ccc(C(=O)NCCCS(=O)(=O)O)cc1`, the TGI in [1], in [2], in assay [3], in [4], in [5] and in assay [6] was over 100 µM each time. For the same compound, the TGI in assay [8], in assay [9], in assay [10], in assay [11], in assay [12] and in [18] was over 100 µM in each case. In addition, the TGI in assay [13], in [14], in assay [15], in assay [16] and in assay [17] was over 100 µM in each case.

With `O=C(O)c1cc(CCc2ccc(O)c(O)c2)ccc1O`, the TGI in assay [2], in assay [3], in assay [4], in [5], in [6] and in assay [8] was over 100 µM throughout. The TGI was over 100 µM in assay [9]; over 100 µM in [12]; over 100 µM in assay [18]; over 100 µM in [13]; 61.7 µM in assay [14]; over 100 µM in assay [15]. This compound also had a TGI in assay [16] of over 100 µM.

In the case of `COc1ccc(/C=C/C(=O)c2cc(OC)cc(OC)c2)cc1`, the TGI came out at 27 µM in assay [1]; 17.7 µM in assay [2]; 7.23 µM in [3]; 8.53 µM in assay [4]; 13.5 µM in [5]; 11.9 µM in [6]. Moreover, the TGI in assay [7] is 8.6 µM; in assay [8] it was 6.29 µM; in [9] it was 6.67 µM; in assay [10], 15.4 µM; in [11], 18 µM; in assay [12] it was 15.1 µM. Also, the TGI amounted to 16.8 µM in assay [18]; 16.4 µM in [13]; 4.96 µM in assay [15]; 0.952 µM in assay [16]; 23.9 µM in [17].
